# ChEMBL document CHEMBL5214898 (J Med Chem, 2021)
# Columns and labels:
# [1] = Drug uptake in rat assessed as unbound concentration at 10 mg/kg measured after 24 hrs; type: ADME, organism-based; conditions: in vivo
# [2] = Cmax in rat at 10 mg/kg; type: ADME, organism-based; design: dose 10 mg/kg; conditions: in vivo
# [3] = Unbound Cmax in rat at 10 mg/kg; type: ADME, organism-based; conditions: in vivo
# [4] = Drug uptake in rat at 10 mg/kg measured after 24 hrs; type: ADME, organism-based; conditions: in vivo, read-out: Drug uptake
# [5] = Half life in Wistar Han rat plasma 2 mg/kg, iv by LC-MS/MS analysis; type: ADME, organism-based
# [6] = Clearance in Wistar Han rat plasma 2 mg/kg, iv measured for 2 to 1440 mins by LC-MS/MS analysis; type: ADME, organism-based; conditions: time 2-1440 min
# [7] = Oral bioavailability in Wistar Han rat plasma 10 mg/kg measured for 15 to 1440 mins by LC-MS/MS analysis relative to control; type: ADME, organism-based; conditions: time 15-1440 min
# [8] = AUC in Wistar Han rat plasma 10 mg/kg, po measured for 15 to 1440 mins by LC-MS/MS analysis; type: ADME, organism-based
# [9] = Cmax in Wistar Han rat plasma 10 mg/kg, po measured for 15 to 1440 mins by LC-MS/MS analysis; type: ADME, organism-based
# [10] = Tmax in Wistar Han rat plasma 10 mg/kg, po measured for 15 to 1440 mins by LC-MS/MS analysis; type: ADME, organism-based; conditions: time 15-1440 min
# [11] = Drug uptake in Wistar Han rat plasma 10 mg/kg, po measured after 24 hrs mins by LC-MS/MS analysis; type: ADME, organism-based
# [12] = Cmax in Beagle dog plasma 2 mg/kg, po measured for 15 to 1440 mins by LC-MS/MS analysis; type: ADME, organism-based, Canis lupus familiaris
# [13] = Drug uptake in Beagle dog plasma 2 mg/kg, po measured after 24 hrs mins by LC-MS/MS analysis; type: ADME, organism-based, Canis lupus familiaris
# [14] = Half life in Beagle dog plasma 1 mg/kg, iv by LC-MS/MS analysis; type: ADME, organism-based, Canis lupus familiaris
# [15] = Oral bioavailability in Beagle dog plasma 2 mg/kg measured for 15 to 1440 mins by LC-MS/MS analysis relative to control; type: ADME, organism-based, Canis lupus familiaris; conditions: time 15-1440 min
# [16] = AUC in Beagle dog plasma 2 mg/kg, po measured for 15 to 1440 mins by LC-MS/MS analysis; type: ADME, organism-based, Canis lupus familiaris
# [17] = Tmax in Beagle dog plasma 2 mg/kg, po measured for 15 to 1440 mins by LC-MS/MS analysis; type: ADME, organism-based, Canis lupus familiaris; conditions: time 15-1440 min
# [18] = Clearance in Beagle dog plasma 1 mg/kg, iv measured for 2 to 1440 mins by LC-MS/MS analysis; type: ADME, organism-based, Canis lupus familiaris; conditions: time 2-1440 min
Drug uptake(free) [1] [nM],Cmax [2] [nM],fCmax [3] [nM],concentration at 24 h [4] [nM],half-life [5] [h],clearance [6] [mL/min/kg],bioavailability [7] [%],AUC [8] [µM·h],Cmax [9] [nM],Tmax [10] [h],concentration at 24 h [11] [nM],Cmax [12] [nM],concentration at 24 h [13] [nM],half-life [14] [h],bioavailability [15] [%],AUC [16] [µM·h],Tmax [17] [h],clearance [18] [mL/min/kg],SMILES
–,–,–,–,5.1,49,37,2.3,510,4,3.6,–,–,–,–,–,–,–,CCC(=O)CCCCC[C@H](NC(=O)[C@H]1CC12CCN(CC)CC2)c1ncc(-c2cc3cn(C)nc3cc2OC)o1
–,–,–,–,5.4,65,25,1.1,150,5,7.2,15,2,91,11,0.07,3,2.9,CCC(=O)CCCCC[C@H](NC(=O)[C@H]1CC12CCN(CC)CC2)c1ncc(-c2cc3ccc(C)nc3cc2OC)o1
–,–,–,–,6.5,100,22,0.6,120,5,2.2,–,–,–,–,–,–,–,CCC(=O)CCCCC[C@H](NC(=O)[C@H]1CC12CCN(CC)CC2)c1ncc(-c2cc3ccn(CC)c(=O)c3cc2OC)o1
–,–,–,–,4.8,25,78,10,2500,4,28,72,3.3,43,42,0.57,3,6,CCC(=O)CCCCC[C@H](NC(=O)[C@H]1CC12CCN(C)CC2)c1ncc(-c2cc3ccc(C)nc3cc2OC)o1
–,–,–,–,3.9,6,20,9.7,2100,3,9.2,–,–,–,–,–,–,–,CCC(=O)CCCCC[C@H](NC(=O)[C@H]1CC12CCN(CC)CC2)c1ncc(-c2cc3cccnc3nc2OC)o1
–,–,–,–,13,51,7.9,0.47,97,2.1,3.2,26,1.2,19,4.1,0.1,1.3,24,CCC(=O)CCCCC[C@H](NC(=O)[C@H]1CC12CCN(CC)CC2)c1ncc(-c2cc3ccc(C)nc3cc2OC)[nH]1

# Further lines, the compound ahead of its results:
SMILES,Drug uptake(free) [1] [nM],Cmax [2] [nM],fCmax [3] [nM],concentration at 24 h [4] [nM],half-life [5] [h],clearance [6] [mL/min/kg],bioavailability [7] [%],AUC [8] [µM·h],Cmax [9] [nM],Tmax [10] [h],concentration at 24 h [11] [nM],Cmax [12] [nM],concentration at 24 h [13] [nM],half-life [14] [h],bioavailability [15] [%],AUC [16] [µM·h],Tmax [17] [h],clearance [18] [mL/min/kg]
CCC(=O)CCCCC[C@H](NC(=O)[C@H]1CC12CCN(C)CC2)c1ncc(-c2cc3ccccc3nc2OC)[nH]1,0.11,627,7.5,9,–,–,–,–,–,–,–,–,–,–,–,–,–,–
CCC(=O)CCCCC[C@H](NC(=O)[C@H]1CC12CCN(C)CC2)c1ncc(-c2ccc3nc(C)ccc3c2)[nH]1,–,–,–,–,2.9,45,0.1,0.01,4,0.3,–,–,–,–,–,–,–,–
CCC(=O)CCCCC[C@H](NC(=O)[C@H]1CC12CCN(C)CC2)c1ncc(-c2cc3cccnc3cc2OC)[nH]1,–,–,–,–,9.5,61,2,0.06,20,2.1,1,–,–,–,–,–,–,–
CCC(=O)CCCCC[C@H](NC(=O)[C@H]1CC12CCN(C(C)C)CC2)c1ncc(-c2cc3ccc(C)nc3cc2OC)[nH]1,–,–,–,–,24,60,0.6,0.02,9,2.1,1,–,–,–,–,–,–,–
CCC(=O)CCCCC[C@H](NC(=O)[C@H]1CC12CCN(C)CC2)c1ncc(-c2cc3ccc(C)nc3cc2OC)[nH]1,–,–,–,–,33,12,2.5,0.98,170,5,8.9,–,–,–,–,–,–,–
CCC(=O)CCCCC[C@H](NC(=O)[C@H]1CC12CCN(C)CC2)c1ncc(-c2cc3ccc(C)nc3cc2F)o1,–,–,–,–,1.9,71,6.9,0.3,63,2,1,–,–,–,–,–,–,–
